Assay results as given in patent US20160046616A1, “NRF2 SMALL MOLECULE INHIBITORS FOR CANCER THERAPY” (THE JOHNS HOPKINS UNIVERSITY, priority 2013, published 2016).
Where two headings read alike, the source gives them in different places.

Tests used:
[1] = tested on: A549 NRF2-ARE-Fluc stable cell line; assay: A549 Nrf2 assay: NRF2-ARE firefly luciferase reporter gene assay; assay type: cell-based; details: read-out: Potency of inhibition, A549
Source text: A549, the parental cell line, is a non-small-cell lung cancer (NSCLC) cell line with loss-of-function (LOF) Keap1 activity, thus NRF2 transcription factor constitutively translocates into the nucleus to activate the expression of downstream target genes of NRF2. A firefly luciferase reporter (Fluc) construct driven by a minimal promoter of NRF2-specific anti-oxidant responsive element (ARE) is stably expressed in the A549 cells. Compounds that reduce the translocation of NRF2 into the nucleus or prevent the interaction between NRF2 and ARE will lead to a decrease in luciferase activity.
The final concentration of DMSO was maintained at 0.46%. Control compounds Budesonide and Staurosporine were both added at a concentration of 2 mM and Budesonide also was added as a 1:10 titration, starting at 200 μM, to achieve dose-response. After an 18-24 hour incubation at 37° C., 95% humidity, and 5% CO2, 1 μL of 5× CellTiter-Fluor non-lytic cell viability assay reagent (Promega, Madison, Wis.) was added into the each well of the plates. The plates were then incubated for 30 minutes at room temperature before they were read on a ViewLux plate imager (Perkin Elmer, Waltham, Mass.) using an excitation wavelength of 405 nm and an emission wavelength of 525 nm.
A cell based reporter assay approach was used for the identification of agents that could inhibit Nrf2 mediated gene expression (FIG. 1). A549-ARE-luciferase cells express the luciferase gene driven by a minimal promoter and an enhancer element containing an NRF2 binding site (Antioxidant Response Element, ARE).
(§1) Representative compounds were assayed to assess the potency of inhibition in an A549 NRF2-ARE-Fluc stable cell line (A549 Nrf2 assay), in an H838 NRF2-ARE-Fluc stable cell line (H838 Nrf2 assay), and in an H1437 NRF2-ARE-Fluc stable cell line (H1437 Nrf2 assay) (see Table 3).

[2] = tested on: H1437 NRF2-ARE-Fluc stable cell line; assay: H1437 Nrf2 assay: NRF2-ARE firefly luciferase reporter gene assay; assay type: cell-based; details: read-out: Potency of inhibition, H1437
Source text: H1437 is another NSCLC cell line with LOF Keap1 activity and constitutive translocation of NRF2 into the nucleus. A firefly luciferase reporter construct driven by a minimal promoter of NRF2-specific ARE is stably expressed in the H1437 cells. This cell line was used as a confirmation assay to make sure hits identified from primary screening and that passed counterscreen assays worked in different cell types with a constitutively active NRF2 pathway (deficiency in Keap1).
This assay was very similar to the primary assay except that the cell line was changed. […] The final concentration of DMSO was maintained at 0.46%. Control compounds Budesonide and Staurosporine were both added at a concentration of 2 mM and Budesonide was also added as a 1:10 titration, starting at 200 μM, to achieve dose-response. After an 18-24 hour incubation at 37° C., 95% humidity, and 5% CO2, 1 μL of 5× CellTiter-Fluor non-lytic cell viability assay reagent (Promega, Madison Wis.) was added into the each well of the plates. The plates were then incubated for 30 minutes at room temperature before they were read on a ViewLux plate imager (Perkin Elmer, Waltham Mass.) using an excitation wavelength of 405 nm and an emission wavelength of 525 nm.
as §1

[3] = Homo sapiens, NCI-H1437, H1437 NRF2-ARE-Fluc stable cell line

Structure (SMILES)	IC50 ([1]; Homo sapiens)	IC50 [2, 3]	IC50 [1]	IC50 ([2]; H1437 NRF2-ARE-Fluc stable cell line)
Cc1ccccc1C(=O)N1CCc2cc(-c3nc(NC(=O)Cc4ccc5c(c4)OCCO5)sc3C)ccc21 [Compound 5]	5 to 25 µM	< 5 µM	–	–
Cc1ccc(CC(=O)Nc2nc(-c3ccc4c(c3)CCN4C(=O)c3ccccc3C)c(C)s2)cc1C [Compound 10]	5 to 25 µM	> 25 µM	–	–
CC(=O)Nc1nc(-c2ccc3c(c2)CCN3C(=O)c2ccccc2C)c(C)s1 [Compound 11]	5 to 25 µM	< 5 µM	–	–
Cc1ccccc1C(=O)N1CCc2cc(-c3nc(NC(=O)c4ccc5c(c4)OCO5)sc3C)ccc21 [Compound 13]	< 5 µM	5 to 25 µM	–	–
Cc1sc(NC(=O)Cc2ccc3c(c2)OCO3)nc1-c1ccc2c(c1)CCN2 [Compound 17, 2-(Benzo[d][1,3]dioxol-5-yl)-N-(4-(indolin-5-yl)-5-methylthiazol-2-yl)acetamide]	5 to 25 µM	> 25 µM	–	–
CC(=O)N1CCc2cc(-c3nc(NC(=O)Cc4ccc5c(c4)OCO5)sc3C)ccc21 [Compound 21]	< 5 µM	5 to 25 µM	–	–
Cc1ccc(C(=O)N2CCc3cc(-c4nc(NC(=O)Cc5ccc6c(c5)OCO6)sc4C)ccc32)cc1 [Compound 23]	5 to 25 µM	> 25 µM	–	–
Cc1sc(NC(=O)Cc2ccc3c(c2)OCO3)nc1-c1ccc2c(c1)CCN2C(=O)C1CCCCC1 [Compound 25]	5 to 25 µM	< 5 µM	–	–
Cc1sc(NC(=O)Cc2ccc3c(c2)OCO3)nc1-c1ccc2c(c1)CCN2C [Compound 26]	5 to 25 µM	> 25 µM	–	–
Cc1cccc(C(=O)N2CCc3cc(-c4nc(NC(=O)Cc5ccc6c(c5)OCO6)sc4C)ccc32)c1 [Compound 29]	> 25 µM	5 to 25 µM	–	–
CCN(CC)S(=O)(=O)c1cccc(C(=O)Nc2ccc(C#N)cc2)c1 [Compound 32]	< 5 µM	5 to 25 µM	–	–
CCN(C1CCCCC1)S(=O)(=O)c1ccc(S(=O)(=O)NCc2ccncc2)cc1 [Compound 33]	5 to 25 µM	< 5 µM	–	–
CC(=O)N1CCc2cc(S(=O)(=O)NCCC3=CCCCC3)ccc21 [Compound 35]	< 5 µM	5 to 25 µM	–	–
CC1CCCN(C(=O)c2ccc(S(=O)(=O)N3CCC(c4nc5ccccc5s4)CC3)cc2)C1 (stereo not drawn) [Compound 36]	< 5 µM	< 5 µM	–	–
CCN(CC)C(=O)c1ccc(S(=O)(=O)N2CCC(c3nc4ccccc4s3)CC2)cc1 [Compound 37]	< 5 µM	< 5 µM	–	–
O=C(Nc1ccc(S(=O)(=O)N2CCCCC2)cc1)c1ccc(CN2CCc3ccccc3C2)cc1 [Compound 38]	< 5 µM	< 5 µM	–	–
NC(=O)c1ccc(N2CCN(S(=O)(=O)c3ccccc3)CC2)c([N+](=O)[O-])c1 [Compound 39]	< 5 µM	5 to 25 µM	–	–
CCC(=O)N1c2ccc(S(=O)(=O)N3CCN(c4ccc([N+](=O)[O-])cc4)CC3)cc2CC1C (stereo not drawn) [Compound 40]	< 5 µM	< 5 µM	–	–
NC(=O)C1CCN(c2ccc(S(=O)(=O)N3CCC(Cc4ccccc4)CC3)cn2)CC1 [Compound 41]	< 5 µM	5 to 25 µM	–	–
COc1ccc(-c2cc(C)no2)cc1S(=O)(=O)N1CCN(c2ccc([N+](=O)[O-])cc2)CC1 [Compound 42]	< 5 µM	< 5 µM	–	–
Cc1csc2ncnc(N3CCN(S(=O)(=O)c4cccc(C(F)(F)F)c4)CC3)c12 [Compound 43]	5 to 25 µM	< 5 µM	–	–
Cc1ccccc1CCNC(=O)c1ccc(Cl)c(S(=O)(=O)N2CC(C)OC(C)C2)c1 (stereo not drawn) [Compound 44]	5 to 25 µM	5 to 25 µM	–	–
Cc1ccc(NC(=O)COc2ccccc2C(N)=O)cc1S(=O)(=O)N1CCCCCC1 [Compound 45]	< 5 µM	< 5 µM	–	–
Cc1ccc(NC(=O)c2ccc(S(=O)(=O)N(C)c3ccccc3)cc2)cc1S(=O)(=O)N1CCOCC1 [Compound 46]	< 5 µM	5 to 25 µM	–	–
Cc1ccccc1C(=O)N1CCc2cc(-c3nc(NC(=O)CC4CCN(C(=O)OC(C)(C)C)CC4)sc3C)ccc21 [Compound 60, tert-butyl 4-(2-((5-methyl-4-(1-(2-methylbenzoyl)indolin-5-yl)thiazol-2-yl)amino)-2-oxoethyl)piperidine-1-carboxylate]	< 5 µM	< 5 µM	–	–

More lines, now with the values ahead:

IC50 ([1]; Homo sapiens)	IC50 [2, 3]	IC50 [1]	IC50 ([2]; H1437 NRF2-ARE-Fluc stable cell line)	Structure (SMILES)
5 to 25 µM	5 to 25 µM	–	–	Cc1ccccc1C(=O)N1CCc2cc(-c3csc(NC(=O)Cc4ccc5c(c4)OCO5)n3)ccc21 [Compound 2]
< 5 µM	< 5 µM	–	–	COc1cccc(CC(=O)Nc2nc(-c3ccc4c(c3)CCN4C(=O)c3ccccc3C)c(C)s2)c1 [Compound 6]
< 5 µM	< 5 µM	–	–	COc1ccc(CC(=O)Nc2nc(-c3ccc4c(c3)CCN4C(=O)c3ccccc3C)c(C)s2)cc1 [Compound 7]
< 5 µM	< 5 µM	–	–	Cc1ccccc1C(=O)N1CCc2cc(-c3nc(NC(=O)Cc4ccccc4)sc3C)ccc21 [Compound 8]
< 5 µM	5 to 25 µM	–	–	Cc1ccccc1C(=O)N1CCc2cc(-c3nc(NC(=O)Cc4ccc5ccccc5c4)sc3C)ccc21 [Compound 9]
< 5 µM	< 5 µM	–	–	Cc1ccccc1C(=O)N1CCc2cc(-c3nc(NC(=O)Cc4ccc(F)c(F)c4)sc3C)ccc21 [Compound 12]
–	–	< 5 µM	5 to 25 µM	Cc1sc(NC(=O)Cc2ccc3c(c2)OCO3)nc1-c1ccc2c(c1)CCN2C(=O)c1ccccc1 [Compound 14]
> 25 µM	> 25 µM	–	–	O=C(Nc1ncc(Cc2ccc(C(F)(F)F)cc2)s1)c1ccco1 [Compound 15]
5 to 25 µM	5 to 25 µM	–	–	O=C(Nc1ncc(Cc2ccccc2)s1)c1ccc(-c2cccc([N+](=O)[O-])c2)o1 [Compound 16]
5 to 25 µM	< 5 µM	–	–	O=C(Nc1ncc(Cc2ccc(C(F)(F)F)cc2)s1)c1ccc(-c2ccccc2[N+](=O)[O-])o1 [Compound 18]
5 to 25 µM	> 25 µM	–	–	O=C(Nc1ncc(Cc2ccc(C(F)(F)F)cc2)s1)c1ccc(-c2ccccc2)o1 [Compound 19]
5 to 25 µM	< 5 µM	–	–	O=C(Nc1ncc(Cc2cccc(C(F)(F)F)c2)s1)c1ccc(-c2cccc([N+](=O)[O-])c2)o1 [Compound 20]
5 to 25 µM	5 to 25 µM	–	–	O=C(Nc1ncc(Cc2ccc(C(F)(F)F)cc2)s1)c1ccc(-c2ccc([N+](=O)[O-])cc2)o1 [Compound 22]
< 5 µM	5 to 25 µM	–	–	Cc1ccccc1S(=O)(=O)N1CCc2cc(-c3nc(NC(=O)Cc4ccc5c(c4)OCO5)sc3C)ccc21 [Compound 24]
5 to 25 µM	< 5 µM	–	–	O=C(Nc1ncc(Cc2ccc(C(F)(F)F)cc2)s1)c1ccc(-c2cccnc2)o1 [Compound 27]
5 to 25 µM	> 25 µM	–	–	Cc1ccccc1C(=O)N1CCc2cc(-c3cccc(NC(=O)Cc4ccc5c(c4)OCO5)n3)ccc21 [Compound 28]
5 to 25 µM	5 to 25 µM	–	–	Cc1ccccc1C(=O)n1ccc2cc(-c3nc(NC(=O)Cc4ccc5c(c4)OCO5)sc3C)ccc21 [Compound 30]
5 to 25 µM	> 25 µM	–	–	Cc1ccccc1C(=O)N1CCc2cc(-c3cccc(NC(=O)Cc4ccc5c(c4)OCO5)c3)ccc21 [Compound 31]
< 5 µM	5 to 25 µM	–	–	O=C(Nc1ccc(S(=O)(=O)N2CCN(Cc3ccccc3)CC2)cc1)c1cnccn1 [Compound 34]
5 to 25 µM	5 to 25 µM	–	–	O=C(Nc1cccc(Cc2ccccc2)c1)c1ccc(-c2cccc([N+](=O)[O-])c2)o1 [Compound 56]
> 25 µM	> 25 µM	–	–	O=C(Cc1ccccc1)Nc1cccc(-c2ccc3[nH]cnc3c2)n1 [Compound 57, N-(6-(1H-benzo[d]imidazol-5-yl)pyridin-2-yl)-2-phenylacetamide]
> 25 µM	5 to 25 µM	–	–	O=C(Nc1ncc(Cc2ccc(C(F)(F)F)cc2)s1)c1ccnc(-c2ccccc2)c1 [Compound 58]
5 to 25 µM	> 25 µM	–	–	O=C(Nc1ncc(Cc2ccc(C(F)(F)F)cc2)s1)c1cccc(-c2ccccc2)c1 [Compound 59]
